Measurements from patent publication US9682995B2, “Amino-substituted isothiazoles” (BAYER PHARMA AKTIENGESELLSCHAFT, priority 2013, dated 2017).

Experiments:
Assay in all cases: Kinase Profiling (KINOMEscan)
Format in all cases: binding
[1] = biological target: 456 kinases (of these 395 non-mutant kinases) (Homo sapiens, UniProt O15075); conditions: DCAMKL1; 10 μM
[2] = biological target: 456 kinases (of these 395 non-mutant kinases) (Homo sapiens, UniProt Q9P2K8, S808G); conditions: GCN2(Kin.Dom.2,S808G); 10 μM
[3] = biological target: 456 kinases (of these 395 non-mutant kinases) (Homo sapiens, UniProt Q00537); conditions: PCTK2; 10 μM
[4] = biological target: 456 kinases (of these 395 non-mutant kinases) (Homo sapiens, UniProt P00519, T315I); conditions: 10 μM
[5] = biological target: 456 kinases (of these 395 non-mutant kinases) (Homo sapiens, UniProt Q14004); conditions: CDC2L5; 10 μM
[6] = biological target: 456 kinases (of these 395 non-mutant kinases) (Homo sapiens, UniProt Q13131); conditions: AMPK-alpha1; 10 μM
[7] = biological target: 456 kinases (of these 395 non-mutant kinases) (Homo sapiens, UniProt Q96RR4); conditions: CAMKK2; 10 μM
Chain of 456 kinases (of these 395 non-mutant kinases) (Homo sapiens, UniProt Q96RR4) (Q96RR4 2-588 limits assumed, change not shown): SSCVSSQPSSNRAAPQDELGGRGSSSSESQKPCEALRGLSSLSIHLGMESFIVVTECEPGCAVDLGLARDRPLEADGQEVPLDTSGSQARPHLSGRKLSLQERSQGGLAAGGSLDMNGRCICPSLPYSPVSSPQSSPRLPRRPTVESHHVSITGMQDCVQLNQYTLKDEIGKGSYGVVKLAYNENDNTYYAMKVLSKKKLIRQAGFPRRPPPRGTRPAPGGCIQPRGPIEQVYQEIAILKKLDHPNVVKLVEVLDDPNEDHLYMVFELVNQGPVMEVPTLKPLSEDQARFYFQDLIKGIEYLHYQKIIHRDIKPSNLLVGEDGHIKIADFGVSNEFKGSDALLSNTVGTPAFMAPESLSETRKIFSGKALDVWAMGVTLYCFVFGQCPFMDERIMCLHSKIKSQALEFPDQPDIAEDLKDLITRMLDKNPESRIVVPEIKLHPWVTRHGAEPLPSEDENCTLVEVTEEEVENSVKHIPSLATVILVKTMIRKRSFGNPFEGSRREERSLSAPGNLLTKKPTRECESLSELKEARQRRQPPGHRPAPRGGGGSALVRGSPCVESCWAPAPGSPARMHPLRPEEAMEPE

[8] = biological target: 456 kinases (of these 395 non-mutant kinases) (Homo sapiens, UniProt Q8N4C8); conditions: MINK; 10 μM
[9] = biological target: 456 kinases (of these 395 non-mutant kinases) (Homo sapiens, UniProt P42684); conditions: ABL2; 10 μM
Chain of 456 kinases (of these 395 non-mutant kinases) (Homo sapiens, UniProt P42684) (P42684 2-1182 limits assumed, change not shown): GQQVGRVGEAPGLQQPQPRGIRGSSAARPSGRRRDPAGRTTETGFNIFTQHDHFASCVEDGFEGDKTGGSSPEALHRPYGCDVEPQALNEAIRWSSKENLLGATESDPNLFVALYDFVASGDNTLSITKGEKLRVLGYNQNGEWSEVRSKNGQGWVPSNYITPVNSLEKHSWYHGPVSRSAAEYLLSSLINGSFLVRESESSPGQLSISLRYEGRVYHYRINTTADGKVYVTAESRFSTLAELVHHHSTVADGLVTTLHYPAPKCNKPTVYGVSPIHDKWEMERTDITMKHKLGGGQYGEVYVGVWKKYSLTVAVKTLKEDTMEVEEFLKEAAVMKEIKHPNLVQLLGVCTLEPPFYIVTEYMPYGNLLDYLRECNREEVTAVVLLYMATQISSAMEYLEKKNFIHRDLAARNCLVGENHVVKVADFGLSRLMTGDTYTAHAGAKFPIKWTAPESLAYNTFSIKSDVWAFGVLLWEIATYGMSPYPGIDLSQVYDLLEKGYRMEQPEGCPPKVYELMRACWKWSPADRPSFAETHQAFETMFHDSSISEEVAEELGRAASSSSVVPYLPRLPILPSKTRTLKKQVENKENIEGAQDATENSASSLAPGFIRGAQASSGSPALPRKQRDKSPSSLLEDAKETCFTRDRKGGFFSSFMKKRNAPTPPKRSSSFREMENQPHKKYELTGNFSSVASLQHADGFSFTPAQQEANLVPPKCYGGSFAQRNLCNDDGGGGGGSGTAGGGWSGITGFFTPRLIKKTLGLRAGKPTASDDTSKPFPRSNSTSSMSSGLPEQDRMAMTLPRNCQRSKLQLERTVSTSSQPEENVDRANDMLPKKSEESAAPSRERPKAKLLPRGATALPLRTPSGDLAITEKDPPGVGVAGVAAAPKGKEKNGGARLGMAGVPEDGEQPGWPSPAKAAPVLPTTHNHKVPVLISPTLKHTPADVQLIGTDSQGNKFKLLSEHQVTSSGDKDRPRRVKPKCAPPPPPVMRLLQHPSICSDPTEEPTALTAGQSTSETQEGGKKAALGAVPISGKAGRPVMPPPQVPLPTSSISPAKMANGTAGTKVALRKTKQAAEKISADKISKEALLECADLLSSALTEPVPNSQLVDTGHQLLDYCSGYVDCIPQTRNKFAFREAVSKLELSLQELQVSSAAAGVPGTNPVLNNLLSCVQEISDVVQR

[10] = biological target: 456 kinases (of these 395 non-mutant kinases) (Homo sapiens, UniProt O00750); conditions: PIK3C2B; 10 μM
[11] = biological target: 456 kinases (of these 395 non-mutant kinases) (Homo sapiens, UniProt O14733); conditions: MKK7; 10 μM
Chain of 456 kinases (of these 395 non-mutant kinases) (Homo sapiens, UniProt O14733) (O14733 2-419 limits assumed, stated change not applied): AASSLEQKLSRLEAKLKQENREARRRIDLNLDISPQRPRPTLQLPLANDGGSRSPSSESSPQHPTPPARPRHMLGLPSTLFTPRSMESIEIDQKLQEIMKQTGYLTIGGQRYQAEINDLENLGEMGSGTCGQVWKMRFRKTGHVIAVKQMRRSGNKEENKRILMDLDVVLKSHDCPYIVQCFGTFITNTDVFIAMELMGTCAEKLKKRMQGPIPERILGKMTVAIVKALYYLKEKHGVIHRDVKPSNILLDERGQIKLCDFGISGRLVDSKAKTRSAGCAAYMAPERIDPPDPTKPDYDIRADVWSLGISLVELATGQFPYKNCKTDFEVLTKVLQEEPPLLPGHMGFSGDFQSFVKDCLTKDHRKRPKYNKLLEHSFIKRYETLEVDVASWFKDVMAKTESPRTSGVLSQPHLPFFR

[12] = biological target: 456 kinases (of these 395 non-mutant kinases) (Homo sapiens, UniProt Q9UM73, L1196M); conditions: ALK(L1196M); 10 μM
[13] = biological target: 456 kinases (of these 395 non-mutant kinases) (Homo sapiens, UniProt Q92918); conditions: HPK1; 10 μM
[14] = biological target: 456 kinases (of these 395 non-mutant kinases) (Homo sapiens, UniProt Q13177); conditions: PAK2; 10 μM
Chain of 456 kinases (of these 395 non-mutant kinases) (Homo sapiens, UniProt Q13177) (Q13177 2-524 limits assumed, change not shown): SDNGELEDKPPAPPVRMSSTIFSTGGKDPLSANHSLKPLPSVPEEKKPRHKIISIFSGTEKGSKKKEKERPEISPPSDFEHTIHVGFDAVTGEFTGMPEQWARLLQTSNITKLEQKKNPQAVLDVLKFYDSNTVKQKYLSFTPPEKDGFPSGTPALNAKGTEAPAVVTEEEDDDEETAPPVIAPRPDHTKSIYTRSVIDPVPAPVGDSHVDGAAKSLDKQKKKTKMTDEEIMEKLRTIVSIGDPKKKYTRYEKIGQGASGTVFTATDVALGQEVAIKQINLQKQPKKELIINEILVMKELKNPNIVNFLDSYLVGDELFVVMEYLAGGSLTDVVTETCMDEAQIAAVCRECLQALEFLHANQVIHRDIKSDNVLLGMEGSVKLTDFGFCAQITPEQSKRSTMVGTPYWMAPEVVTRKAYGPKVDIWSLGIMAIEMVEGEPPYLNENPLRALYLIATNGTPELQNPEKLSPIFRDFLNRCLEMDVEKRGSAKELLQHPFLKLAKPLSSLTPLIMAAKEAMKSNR

[15] = biological target: 456 kinases (of these 395 non-mutant kinases) (Homo sapiens, UniProt Q16512); conditions: PKN1; 10 μM
[16] = biological target: 456 kinases (of these 395 non-mutant kinases) (Homo sapiens, UniProt Q9P1W9); conditions: PIM2; 10 μM
[17] = biological target: 456 kinases (of these 395 non-mutant kinases) (Homo sapiens, UniProt P23443); conditions: S6K1; 10 μM
[18] = biological target: 456 kinases (of these 395 non-mutant kinases) (Homo sapiens, UniProt Q14164); conditions: IKK-epsilon; 10 μM
[19] = biological target: 456 kinases (of these 395 non-mutant kinases) (Homo sapiens, UniProt Q16832); conditions: DDR2; 10 μM
Chain of 456 kinases (of these 395 non-mutant kinases) (Homo sapiens, UniProt Q16832) (Q16832 22-855 limits assumed, change not shown): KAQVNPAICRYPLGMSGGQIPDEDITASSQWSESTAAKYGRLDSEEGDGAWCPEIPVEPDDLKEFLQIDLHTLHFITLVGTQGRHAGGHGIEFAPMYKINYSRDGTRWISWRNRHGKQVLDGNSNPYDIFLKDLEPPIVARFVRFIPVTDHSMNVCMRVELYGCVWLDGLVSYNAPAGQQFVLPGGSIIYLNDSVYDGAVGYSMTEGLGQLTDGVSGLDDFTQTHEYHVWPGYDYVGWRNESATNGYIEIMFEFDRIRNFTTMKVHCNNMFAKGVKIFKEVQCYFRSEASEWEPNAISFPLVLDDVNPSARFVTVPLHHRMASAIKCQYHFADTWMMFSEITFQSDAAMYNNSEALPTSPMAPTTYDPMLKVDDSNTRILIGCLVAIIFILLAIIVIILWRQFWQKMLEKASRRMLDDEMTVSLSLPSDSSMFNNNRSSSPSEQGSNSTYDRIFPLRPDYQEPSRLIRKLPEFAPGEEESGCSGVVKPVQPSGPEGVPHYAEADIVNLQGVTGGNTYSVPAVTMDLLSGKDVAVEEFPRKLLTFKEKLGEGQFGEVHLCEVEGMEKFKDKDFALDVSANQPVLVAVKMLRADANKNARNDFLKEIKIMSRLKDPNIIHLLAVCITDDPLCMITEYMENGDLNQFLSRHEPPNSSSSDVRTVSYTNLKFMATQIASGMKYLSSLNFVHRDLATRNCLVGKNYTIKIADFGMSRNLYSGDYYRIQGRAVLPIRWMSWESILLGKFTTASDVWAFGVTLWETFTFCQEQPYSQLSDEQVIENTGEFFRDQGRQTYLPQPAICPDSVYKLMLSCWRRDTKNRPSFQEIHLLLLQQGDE

[20] = biological target: 456 kinases (of these 395 non-mutant kinases) (Homo sapiens, UniProt Q00536); conditions: PCTK1; 10 μM
[21] = biological target: 456 kinases (of these 395 non-mutant kinases) (Homo sapiens, UniProt Q9BUB5); conditions: MKNK1; 10 μM
[22] = biological target: 456 kinases (of these 395 non-mutant kinases) (Homo sapiens, UniProt P53350); conditions: PLK1; 10 μM
Chain of 456 kinases (of these 395 non-mutant kinases) (Homo sapiens, UniProt P53350) (P53350 2-603 limits assumed, change not shown): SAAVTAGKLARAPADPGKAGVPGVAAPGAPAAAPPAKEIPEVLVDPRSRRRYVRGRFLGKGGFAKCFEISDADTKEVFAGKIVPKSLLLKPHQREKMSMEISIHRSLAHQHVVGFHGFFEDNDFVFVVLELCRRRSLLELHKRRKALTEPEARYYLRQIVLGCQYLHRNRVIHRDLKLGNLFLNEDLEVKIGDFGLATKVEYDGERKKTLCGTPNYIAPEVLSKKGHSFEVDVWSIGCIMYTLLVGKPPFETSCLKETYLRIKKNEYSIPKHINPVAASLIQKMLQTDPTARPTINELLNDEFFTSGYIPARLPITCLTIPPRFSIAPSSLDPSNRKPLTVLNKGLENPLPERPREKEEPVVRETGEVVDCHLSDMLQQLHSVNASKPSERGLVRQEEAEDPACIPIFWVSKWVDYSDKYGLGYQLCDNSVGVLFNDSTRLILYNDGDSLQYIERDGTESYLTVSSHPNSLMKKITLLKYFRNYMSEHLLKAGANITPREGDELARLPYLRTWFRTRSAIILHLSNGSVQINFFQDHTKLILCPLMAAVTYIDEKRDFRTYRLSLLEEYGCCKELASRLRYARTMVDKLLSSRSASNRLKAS

[23] = biological target: 456 kinases (of these 395 non-mutant kinases) (Homo sapiens, UniProt P11802); conditions: 10 μM
Chain of 456 kinases (of these 395 non-mutant kinases) (Homo sapiens, UniProt P11802) (P11802 2-303 limits assumed, change not shown): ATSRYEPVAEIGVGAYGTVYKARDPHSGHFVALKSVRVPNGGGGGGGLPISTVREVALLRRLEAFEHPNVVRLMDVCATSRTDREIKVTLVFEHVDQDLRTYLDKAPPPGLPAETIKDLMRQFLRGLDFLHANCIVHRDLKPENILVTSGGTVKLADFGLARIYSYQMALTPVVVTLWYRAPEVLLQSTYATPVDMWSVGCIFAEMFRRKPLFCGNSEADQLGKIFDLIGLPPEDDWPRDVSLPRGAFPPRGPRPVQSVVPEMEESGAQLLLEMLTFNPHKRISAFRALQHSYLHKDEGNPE

[24] = biological target: 456 kinases (of these 395 non-mutant kinases) (Homo sapiens, UniProt Q9UL54); conditions: TAOK2; 10 μM
[25] = biological target: 456 kinases (of these 395 non-mutant kinases) (Homo sapiens, UniProt O00141); conditions: SGK; 10 μM
[26] = biological target: 456 kinases (of these 395 non-mutant kinases) (Homo sapiens, UniProt Q13164); conditions: ERK5; 10 μM
[27] = biological target: 456 kinases (of these 395 non-mutant kinases) (Homo sapiens, UniProt P36888, K663Q); conditions: FLT3(K663Q); 10 μM
[28] = biological target: 456 kinases (of these 395 non-mutant kinases) (Homo sapiens, UniProt O15264); conditions: p38-delta; 10 μM
[29] = biological target: 456 kinases (of these 395 non-mutant kinases) (Homo sapiens, UniProt O14578); conditions: CIT; 10 μM
[30] = biological target: 456 kinases (of these 395 non-mutant kinases) (Homo sapiens, UniProt O96013); conditions: PAK4; 10 μM
[31] = biological target: 456 kinases (of these 395 non-mutant kinases) (Homo sapiens, UniProt O60285); conditions: ARK5; 10 μM
[32] = biological target: 456 kinases (of these 395 non-mutant kinases) (Homo sapiens, UniProt Q13705); conditions: ACVR2B; 10 μM
Chain of 456 kinases (of these 395 non-mutant kinases) (Homo sapiens, UniProt Q13705) (Q13705 19-512 limits assumed, change not shown): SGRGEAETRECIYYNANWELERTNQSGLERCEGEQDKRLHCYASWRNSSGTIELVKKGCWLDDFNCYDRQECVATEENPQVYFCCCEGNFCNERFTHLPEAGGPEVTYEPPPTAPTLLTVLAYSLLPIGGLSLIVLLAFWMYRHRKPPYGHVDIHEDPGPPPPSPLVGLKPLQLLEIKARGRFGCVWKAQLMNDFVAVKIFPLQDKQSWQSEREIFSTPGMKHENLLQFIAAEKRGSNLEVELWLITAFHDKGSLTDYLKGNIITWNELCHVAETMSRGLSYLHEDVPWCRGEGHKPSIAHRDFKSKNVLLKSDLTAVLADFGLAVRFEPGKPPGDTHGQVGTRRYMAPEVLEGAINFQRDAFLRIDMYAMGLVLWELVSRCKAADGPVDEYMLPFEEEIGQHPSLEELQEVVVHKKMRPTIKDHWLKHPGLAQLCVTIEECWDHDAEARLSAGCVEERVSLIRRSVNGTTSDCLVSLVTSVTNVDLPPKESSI

In the case of `CCc1ccccc1NC(=O)c1c(C)nsc1Nc1cnc2cc(F)ccc2n1` [Example 20, N-(2-Ethylphenyl)-5-[(6-fluoroquinoxalin-2-yl)amino]-3-methyl-1,2-thiazole-4-carboxamide], the “% Ctrl @ 10 μM” value [1] is reported as 92 % Ctrl, the “% Ctrl @ 10 μM” value [2] is reported as 100 % Ctrl and the “% Ctrl @ 10 μM” value [3] is reported as 100 % Ctrl. The “% Ctrl @ 10 μM” value ([4]; ABL1(T315I)-nonphosphorylated) was 100 % Ctrl, the “% Ctrl @ 10 μM” value ([4]; ABL1(T315I)-phosphorylated) was 87 % Ctrl and the “% Ctrl @ 10 μM” value [5] was 100 % Ctrl. The “% Ctrl @ 10 μM” value [6] was 92 % Ctrl, the “% Ctrl @ 10 μM” value [7] was 74 % Ctrl and the “% Ctrl @ 10 μM” value [8] was 100 % Ctrl. The “% Ctrl @ 10 μM” value [9] was 100 % Ctrl, the “% Ctrl @ 10 μM” value [10] was 100 % Ctrl and the “% Ctrl @ 10 μM” value [11] was 100 % Ctrl. For the same compound, the “% Ctrl @ 10 μM” value [12] was 100 % Ctrl, the “% Ctrl @ 10 μM” value [13] was 60 % Ctrl and the “% Ctrl @ 10 μM” value [14] was 100 % Ctrl. For the same compound, the “% Ctrl @ 10 μM” value [15] was 61 % Ctrl, the “% Ctrl @ 10 μM” value [16] was 100 % Ctrl and the “% Ctrl @ 10 μM” value [17] was 100 % Ctrl. For the same compound, the “% Ctrl @ 10 μM” value [18] was 100 % Ctrl, the “% Ctrl @ 10 μM” value [19] was 100 % Ctrl and the “% Ctrl @ 10 μM” value [20] was 100 % Ctrl. The “% Ctrl @ 10 μM” value [21] was 100 % Ctrl, the “% Ctrl @ 10 μM” value [22] was 87 % Ctrl and the “% Ctrl @ 10 μM” value ([23]; CDK4-cyclinD1) was 85 % Ctrl. The “% Ctrl @ 10 μM” value ([23]; CDK4-cyclinD3) was 93 % Ctrl, the “% Ctrl @ 10 μM” value [24] was 100 % Ctrl and the “% Ctrl @ 10 μM” value [25] was 100 % Ctrl. For the same compound, the “% Ctrl @ 10 μM” value [26] was 100 % Ctrl, the “% Ctrl @ 10 μM” value [27] was 75 % Ctrl and the “% Ctrl @ 10 μM” value [28] was 100 % Ctrl. For the same compound, the “% Ctrl @ 10 μM” value [29] was 80 % Ctrl, the “% Ctrl @ 10 μM” value [30] was 100 % Ctrl and the “% Ctrl @ 10 μM” value [31] was 85 % Ctrl. For the same compound, the “% Ctrl @ 10 μM” value [32] was 91 % Ctrl.
